Test results published in patent publication US20060100215A1, “8A,9-dihydro-4aH-isothiazolo[5,4-b]quinoline-3,4-diones and related compounds as anti-infective agents” (priority 2004, published 2006).
Values after ≈ are worked out from the molar mass of the structure shown.

Key:
[1] = test system: E. coli ATCC 25922; assay: Minimum inhibitory concentration (MIC) assay, broth microdilution; format: cell-based; details: Escherichia coli, ATCC25922, Mueller-Hinton II broth, 37° C., 18 to 24 hours, lowest concentration that inhibited visible growth
Method: (§1) The antimicrobial activity of the compounds of the invention may be evaluated by a number of methods, including the following visual minimum inhibitory concentration (MIC) assay. This assay determines the minimum concentration of compound required to inhibit growth of a bacterial strain. Minimum Inhibitory Concentration (MIC) Assay Whole-cell antibacterial activity is determined by broth microdilution using conditions recommended by the NCCLS (see National Committee for Clinical Laboratory Standards. 2001. Performance standards for antimicrobial susceptibility testing: 11th informational supplement. Vol. 21, no. 1, M100-S11. National Committee for Clinical Laboratory Standards, Wayne, Pa.). Test compounds are dissolved in DMSO and diluted 1:50 in Mueller-Hinton II broth (Becton-Dickinson) to produce a 256 μg/ml stock solution. In a 96-well microtiter plate, the compound solution is serially two-fold diluted in Mueller-Hinton II broth. After the compounds are diluted, a 50 μl aliquot of the test organism (˜1×10^6 cfu/mL) is added to each well of the microtiter plate. The final test concentrations ranges from 0.125-128 μg/mL. Inoculated plates are incubated in ambient air at 37° C. for 18 to 24 hours. The organisms selected for testing included laboratory strains S. aureus ATCC 29213 and E. coli ATCC 25922 (strains purchased from American Type Culture Collection, Manassas, Va.). The minimum inhibitory concentration (MIC) is determined as the lowest concentration of compound that inhibited visible growth of the test organism.

[2] = test system: S. aureus ATCC 29213; assay: as above; format: cell-based; details: Staphylococcus aureus, ATCC29213, Mueller-Hinton II broth, 37° C., 18 to 24 hours, lowest concentration that inhibited visible growth
Method: as §1

Row | Compound | MIC [1] [µg/mL] | MIC [2] [µg/mL]
1 | CO/N=C1\CN(c2c(F)cc3c(=O)c4c(=O)[nH]sc4n(C4CC4)c3c2OC)CC1CN (stereo not drawn) [Compound 39, 7-(3-Aminomethyl-4-methoxyimino-pyrrolidin-1-yl)-9-cyclopropyl-6-fluoro-8-methoxy-9H-isothiazolo[5,4-b]quinoline-3,4-dione] | 0.125 (≈ 0.279 µM) | < 0.05
2 | CON=C1CCN(c2cc3c(cc2F)c(=O)c2c(=O)[nH]sc2n3C2CC2)CC1 [Compound 32, 9-Cyclopropyl-6-fluoro-7-(4-methoxyimino-piperidin-1-yl)-9H-isothiazolo[5,4-b]quinoline-3,4-dione] | < 0.05 | < 0.05
3 | CO/N=C1\CN(c2nc3c(cc2F)c(=O)c2c(=O)[nH]sc2n3C2CC2)CC1CN (stereo not drawn) [Compound 42, 7-(3-Aminomethyl-4-methoxyimino-pyrrolidin-1-yl)-9-cyclopropyl-6-fluro-9H-1-thia-2,8,9-triaza-cyclopenta[b]naphtalene-3,4-dione] | < 0.125 | < 0.1
4 | CO/N=C1\CN(c2cc3c(cc2F)c(=O)c2c(=O)[nH]sc2n3C2CC2)CC1CO (stereo not drawn) [Compound 41, 9-Cyclopropyl-6-fluoro-7-(3-hydroxymethyl-4-methoxyimino-pyrrolidin-1-yl)-9H-isothiazolo[5,4-b]quinoline-3,4-dione] | < 0.1 | < 0.05
5 | CO/N=C1\CN(c2cc3c(cc2F)c(=O)c2c(=O)[nH]sc2n3C2CC2)CC1(C)CN (stereo not drawn) [Compound 27] | < 0.05 | < 0.05
6 | CO/N=C1\CN(c2cc3c(cc2F)c(=O)c2c(=O)[nH]sc2n3C2CC2)CC1CN (stereo not drawn) [Compound 13] | < 0.05 | 0.05 (≈ 0.12 µM)
